How the values were obtained:
[1] = tested on: MDA-MB-231; assay: cells; settings: Homo sapiens
Description: Antiproliferative activity against human MDA-MB-231 cells

[2] = target: T1, Estrogen receptor beta (Homo sapiens, UniProt Q92731); settings: filed as antagonist
Description: Relative binding affinity to ERbeta (unknown origin)

[3] = target: T2, Progesterone receptor (Homo sapiens, UniProt P06401)
T2 sequence (P06401 whole entry): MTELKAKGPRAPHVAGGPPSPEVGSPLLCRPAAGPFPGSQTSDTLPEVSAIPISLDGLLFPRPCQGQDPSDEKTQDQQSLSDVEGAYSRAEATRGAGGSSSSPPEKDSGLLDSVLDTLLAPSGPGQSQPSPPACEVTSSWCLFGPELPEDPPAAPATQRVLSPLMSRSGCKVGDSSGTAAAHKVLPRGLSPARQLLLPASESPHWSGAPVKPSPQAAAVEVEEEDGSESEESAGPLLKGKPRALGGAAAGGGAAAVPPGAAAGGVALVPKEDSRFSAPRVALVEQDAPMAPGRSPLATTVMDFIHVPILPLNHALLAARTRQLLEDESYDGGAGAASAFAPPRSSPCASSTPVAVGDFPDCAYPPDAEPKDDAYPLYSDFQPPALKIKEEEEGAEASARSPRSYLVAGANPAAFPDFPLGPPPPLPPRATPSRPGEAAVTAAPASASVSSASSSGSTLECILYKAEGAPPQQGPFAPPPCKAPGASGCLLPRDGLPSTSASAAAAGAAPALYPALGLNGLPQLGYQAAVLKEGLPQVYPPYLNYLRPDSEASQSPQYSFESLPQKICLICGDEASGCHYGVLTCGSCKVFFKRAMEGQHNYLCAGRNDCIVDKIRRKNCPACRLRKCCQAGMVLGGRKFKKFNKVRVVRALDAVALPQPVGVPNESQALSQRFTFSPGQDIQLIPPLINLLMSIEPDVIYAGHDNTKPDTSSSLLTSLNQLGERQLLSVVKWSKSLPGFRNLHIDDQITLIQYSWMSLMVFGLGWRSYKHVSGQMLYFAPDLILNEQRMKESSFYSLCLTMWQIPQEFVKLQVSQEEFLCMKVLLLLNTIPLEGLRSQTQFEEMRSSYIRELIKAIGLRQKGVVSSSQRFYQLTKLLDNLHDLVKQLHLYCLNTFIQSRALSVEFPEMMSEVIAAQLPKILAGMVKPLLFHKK
Description: Antagonist activity at progesterone receptor in human MCF7 cells

[4] = target: T3, Estrogen receptor (Homo sapiens, UniProt P03372)
T3 sequence (P03372 whole entry): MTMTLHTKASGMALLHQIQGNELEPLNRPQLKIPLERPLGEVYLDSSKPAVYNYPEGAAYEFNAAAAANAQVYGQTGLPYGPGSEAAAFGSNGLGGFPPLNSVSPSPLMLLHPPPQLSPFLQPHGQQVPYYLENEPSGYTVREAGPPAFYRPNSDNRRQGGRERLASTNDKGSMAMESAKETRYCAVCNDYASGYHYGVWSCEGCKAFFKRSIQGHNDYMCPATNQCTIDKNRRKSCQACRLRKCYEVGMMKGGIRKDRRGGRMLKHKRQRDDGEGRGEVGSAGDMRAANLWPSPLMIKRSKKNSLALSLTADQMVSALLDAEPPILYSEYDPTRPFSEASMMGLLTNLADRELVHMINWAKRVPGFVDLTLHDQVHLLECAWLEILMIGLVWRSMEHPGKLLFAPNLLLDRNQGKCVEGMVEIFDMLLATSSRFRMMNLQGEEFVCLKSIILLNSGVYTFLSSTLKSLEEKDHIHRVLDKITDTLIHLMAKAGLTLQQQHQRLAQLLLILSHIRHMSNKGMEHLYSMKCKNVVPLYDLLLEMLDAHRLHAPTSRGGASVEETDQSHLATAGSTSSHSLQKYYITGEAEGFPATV
Description: Antagonist activity at ERalpha in human MCF7 cells assessed as downregulation of ERalpha

[5] = tested on: MRC5; assay: cells; settings: Homo sapiens
Description: Antiproliferative activity against human MRC5 cells

[6] = target: T3, Estrogen receptor; remark: listed apart in the source
Description: (§1) Antagonist activity at ERalpha (unknown origin)

[7] = target: T1, Estrogen receptor beta; settings: filed as antagonist; remark: listed apart in the source
Description: (§2) Antagonist activity at ERbeta (unknown origin)

[8] = tested on: MCF7; assay: cells; settings: Homo sapiens
Description: Antiproliferative activity against human MCF7 cells

[9] = tested on: Ishikawa; assay: cells; settings: Homo sapiens
Description: Antiproliferative activity against human Ishikawa cells

[10] = target: T1, Estrogen receptor beta
Description: as §2

[11] = target: T4, Estrogen receptor (Homo sapiens) (UniProt P03372); settings: filed as antagonist
T4 sequence (whole entry): T3 sequence (P03372 whole entry)
Description: Relative binding affinity to ERalpha (unknown origin)

[12] = target: T4, Estrogen receptor (Homo sapiens); settings: filed as antagonist; remark: listed apart in the source
Description: as §1

[13] = physchem; settings: octanol/water
Description: (§3) Lipophilicity, logD of the compound by shake-flask method

[14] = in vivo; settings: rat, po, 50 mg/kg
[15] = in vivo; settings: rat, po, 5 mg/kg
[16] = octanol/water
Description: as §3

T1 sequence (Q92731 whole entry): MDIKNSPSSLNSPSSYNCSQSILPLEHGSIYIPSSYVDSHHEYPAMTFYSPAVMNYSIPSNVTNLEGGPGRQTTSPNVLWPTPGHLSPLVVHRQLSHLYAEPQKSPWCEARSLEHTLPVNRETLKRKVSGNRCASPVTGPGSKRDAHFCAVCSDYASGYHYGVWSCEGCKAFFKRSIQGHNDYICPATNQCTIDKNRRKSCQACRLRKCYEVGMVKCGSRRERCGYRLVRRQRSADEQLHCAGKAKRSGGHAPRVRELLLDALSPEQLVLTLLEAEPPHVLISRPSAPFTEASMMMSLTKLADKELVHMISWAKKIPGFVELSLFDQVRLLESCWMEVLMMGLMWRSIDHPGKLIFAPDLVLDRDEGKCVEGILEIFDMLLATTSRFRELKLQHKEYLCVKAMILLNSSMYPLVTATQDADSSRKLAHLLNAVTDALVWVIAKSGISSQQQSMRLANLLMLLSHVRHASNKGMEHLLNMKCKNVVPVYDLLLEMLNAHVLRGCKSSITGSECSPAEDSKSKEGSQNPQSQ

Row | SMILES | IC50 [1] [nM] | log(RBA) [2] | IC50 [3] [nM] | IC50 [4] [nM] | IC50 [6] [nM] | Ka [7] [nM] | IC50 [8] [nM] | IC50 [9] [nM] | IC50 [10] [nM] | log(RBA) [11] | Ka [12] [nM] | logD [13] | bioavailability [14] [%] | bioavailability [15] [%] | logD [16] | IC50 [5] [nM]
1 | Nc1ccc(-c2c(C(=O)c3ccc(OCCN4CC(C(=O)O)=CCC4=O)cc3)c3ccc(O)cc3oc2=O)cc1 |  |  | > 100 | > 100 | 39 |  |  |  |  |  |  |  |  |  |  | 
2 | CC(CN1CCCC2CCCNC21)OCC(=O)N1NC2c3ccc(O)cc3OCC2c2ccc(O)cc21 (configuration not stated) |  |  |  |  | 168 |  |  |  |  |  |  |  |  |  |  | 
3 | O=C(COCN1CCCCC1)CN1Nc2c(c(=O)oc3cc(O)ccc23)-c2ccc(O)cc21 |  | 0.38 |  |  | 375 | 20.7 |  |  | 36.8 | -0.63 | 84.3 |  |  |  |  | 
4 | CC/C(=C(\c1ccc(O)cc1)c1ccc(OCCN(C)C)cc1)c1ccccc1 [AFIMOXIFENE] | 36.8 |  | > 100 |  |  |  | 1.2 | 1.27 |  |  |  | 3.62 | 94 | 87 |  | > 100
5 | Nc1ccc(-c2c(C(=O)c3ccc(OCCN4CC(C(=O)O)=CCC4=O)cc3)c3ccc(O)cc3[nH]c2=O)cc1 | 77 | 0.09 | > 100 | > 100 | 37 | 40.7 | 0.44 | 0.41 | 72.5 | 2.38 | 0.04 | 1.86 | 91 | 88 |  | > 100
6 | O=C(c1ccc(OCCN2CCCCC2)cc1)c1c(-c2ccc(O)cc2)sc2cc(O)ccc12 [RALOXIFENE] | 92.3 | 0.08 |  |  |  | 41.2 | 0.89 | 0.94 |  |  |  |  | 96 | 93 | 2.37 | 
7 | Cc1cc(N2Nc3c(c(=O)oc4cc(O)ccc34)-c3ccc(O)cc32)ccc1OCCN1CCC=C(C(=O)O)C1 |  | 0.29 |  |  | 144 | 25.5 |  |  | 45.4 | -0.21 | 32.3 |  |  |  |  | 
8 | CNCCOc1ccc(N2Nc3c(c(=O)oc4cc(O)ccc34)-c3ccc(O)cc32)cc1 |  | 0.49 |  |  | 161 | 16.2 |  |  | 28.8 | -0.26 | 36.1 |  |  |  |  | 
9 | Cc1cc(N2Nc3cc(O)ccc3-c3c2c2ccc(O)cc2oc3=O)ccc1OCCN1CCC=C(C(=O)O)C1 |  |  | > 100 |  |  |  |  |  | 98.2 |  |  |  |  |  |  | 

The remaining molecules from weak to strong by IC50 [6], led by results:

Row | IC50 [1] [nM] | log(RBA) [2] | IC50 [3] [nM] | IC50 [4] [nM] | IC50 [6] [nM] | Ka [7] [nM] | IC50 [8] [nM] | IC50 [9] [nM] | IC50 [10] [nM] | log(RBA) [11] | Ka [12] [nM] | logD [13] | bioavailability [14] [%] | bioavailability [15] [%] | logD [16] | SMILES | IC50 [5] [nM]
10 |  |  | > 100 | > 100 | 1.13 |  |  |  |  |  |  |  |  |  |  | Cc1cc(C(=O)C2=C(c3ccc(O)cc3)COc3cc(O)ccc32)ccc1OCCN1Cc2cccnc2C1 | 
11 |  |  | > 100 | > 100 | 1.05 |  |  |  |  |  |  |  |  |  |  | Cc1cc(C(=O)C2=C(c3ccc(O)cc3)COc3cc(O)ccc32)ccc1OCCN1C=Cc2cccnc2C1 | 
12 | 41.8 | 0.01 | > 100 | > 100 | 0.76 | 48.5 | 1.03 | 0.96 | 86.4 | 2.07 | 0.17 |  |  |  |  | O=C(COCN1CCCCC1)CN1Nc2cc(O)ccc2-c2c1c1ccc(O)cc1oc2=O | > 100
13 | 41.5 | 0.19 | > 100 | > 100 | 0.75 | 32.2 | 0.93 | 0.89 | 5730 | 2.07 | 0.17 |  |  |  |  | O=C(c1ccc(OCCN2C(=O)CCC2=O)cc1)c1c(-c2ccc(O)cc2)oc(=O)c2cc(O)ccc12 | > 100
14 | 41.7 | 0.32 | > 100 | > 100 | 0.71 | 24 | 0.8 | 0.76 | 42.7 | 2.1 | 0.16 |  |  |  |  | O=C(c1ccc(OCCN2C=Cc3ccccc3C2)cc1)c1c(-c2ccc(O)cc2)oc(=O)c2cc(O)ccc12 | > 100
15 | 51.5 | 0.12 | > 100 | > 100 | 0.67 | 37.7 | 0.73 | 0.77 | 67.1 | 2.12 | 0.15 |  |  |  |  | CC(CN1CCCC2CCCNC21)OCC(=O)N1Nc2cc(O)ccc2C2COc3cc(O)ccc3C21 (configuration not stated) | > 100
16 | 75.7 | 0.05 | > 100 | > 100 | 0.39 | 44.7 | 0.45 | 0.54 | 79.5 | 2.36 | 0.08 | 1.78 | 94 | 91 |  | Nc1ccc(-c2c(C(=O)c3ccc(OCCNS(=O)(=O)O)cc3)c3ccc(O)cc3oc2=O)cc1 | > 100
17 |  |  | > 100 | > 100 | 0.33 |  |  |  |  |  |  |  |  |  |  | CNCCOc1ccc(N2Nc3cc(O)ccc3-c3c2c2ccc(O)cc2oc3=O)cc1 | 
18 | 91.8 | -0.06 | > 100 | > 100 | 0.19 | 57.6 | 0.25 | 0.34 | 102 | 2.67 | 0.04 | 2.14 | 96 | 91 |  | Cc1cc(C(=O)CNc2c(-c3ccc(O)cc3)c(=O)oc3cc(O)ccc23)ccc1OCCN1CCC=C(C(=O)O)C1 | > 100
